“Also recorded” adds a separate entry of the source.

For experiment [1], the system named is P-JNK^Thr183/Tyr185. Nature of the experiment: Western blot for P-JNK in AML cell lines. The experiment is classed as cell-based. To be noted: all cell lines, 8 h, 10 nM and 100 nM. As to the method:
(§1) Cells were harvested (4×10^6 for cell lines and 7×10^6 for L-AMLs) and washed 3 times with cold PBS (centrifuged at 4° C.). Lysis buffer was prepared with NP40 Cell Lysis Buffer (ThermoFisher Scientific), cOmplete protease inhibitor (Roche, 046993116001), PhosStop (Roche, 04906837001) and Pefablock (Roche, 11585916001) at the recommended concentrations. After the washes, cells were resuspended in 50 μL of lysis buffer, vortexed and incubated on ice for 30 min. Samples were vortexed every 10 min. After 30 min incubation, samples were centrifuged at 14,000 g at 4° C. for 10 min and supernatants were transferred to tubes. Protein was quantified using the DC Protein Assay kit (BioRad) per manufacturer's protocol. 50 μg of cell lines lysate or 20 μg of L-AML6 lysate were loaded for SDS-PAGE. Protein was transferred from the gels into PVDF membranes using a semi dry transfer apparatus (BioRad). […]
(§2) Once it was determined that this group of AML cell lines are highly sensitive to EX 1, the mechanism underlying this response was investigated. […]
(§3) Therefore, cells were treated with a range of doses of EX 1 for 8 h and 24 h, as described above, before protein extraction was performed. […] Noxa was readily detected in control lysate prepared from HEK293 cells.

For experiment [2], the system named is Caspase 3/7 activity in primary AML MNC samples. Kind of experiment: Caspase-Glo 3/7 assay in primary AML samples. The experiment is classed as cell-based, human. As to the method: Cryopreserved mononuclear cells (MNC from BM or leukapheresis samples) were thawed in a water bath at 37° C. and cell suspension transferred to a 50 mL tube. 20 mL of IMDM media (Sigma, 13390) supplemented with 20% FBS (JRH Biosciences), 50 U/mL DNase I (Sigma), 100 IU/mL penicillin (Sigma), 100 μg/mL streptomycin (Sigma) and 2 mM L-glutamine (Sigma) was added dropwise to the cells while the tube was being vortexed slowly (or mixed by hand). The cells were centrifuged at 400 g for 5 min, supernatant was discarded and the cells were washed once with 20 mL PBS. […] The next morning, viability was determined by trypan blue exclusion and samples with viability lower than 85% underwent dead cell removal by density gradient centrifugation as follows: 15 mL of Lymphoprep (AXIS-Shield) was transferred to a 50 mL tube and the cell suspension (25 mL) carefully overlayed (so as not to disturb the interface mixing with the Lymphoprep). […] Viability and cell density were determined by trypan blue exclusion and cells were plated for respective experiments as described in the Results section.
10^4 cells (10 μL) of each sample/treatment were aliquoted in triplicate wells of a 96-well plate (white wall OptiPlate 96, Perkin Elmer) containing 40 μL complete media. […] Luminescence was measured with a FLOUstar OPTIMA plate reader (BMG Labtech). […]

Experiment [3] deals with Noxa. Kind of experiment: Western blot for Noxa in AML cell lines. The experiment is classed as cell-based. To be noted: six AML cell lines, 10 nM and 100 nM, 8 h. Here is the method:
as §1, §2, §3
A general note: A western blot detects proteins with antibodies after separation by electrophoresis.

With `COc1cc(C(=O)c2c(C)oc3c(O)c(OC)ccc23)cc(OC)c1OC` [EX 1, 2-Methyl-7-hydroxy-3-(3,4,5-trimethoxybenzoyl)-6-methoxybenzofuran], the P-JNK induction entry in experiment [1] is reported as “strongly induced in all cell lines; also recorded: induced in all cell lines”. Moreover, the “caspase 3/7 activity” value in experiment [2] (AML480, 24 h) is “some increase in caspase activity”. Also, in experiment [2] (all the AML samples, 48 h), the “caspase 3/7 activity compared to DMSO” value is given as “increase in caspase activity”. The Noxa induction result in experiment [3] was “could only be detected in OCI-AML3 and ME1; also recorded: only observed in OCI-AML3 and ME1 lines”.
